Reference: paper PMC5513037, “Examining the influence of specificity ligands and ATP-competitive ligands on the overall effectiveness of bivalent kinase inhibitors” (Proteome Science, 2017)

Experiments:
Assay in all cases: KAM-matrix competition in K562 lysate;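 on 0.001 uM KAM: median log10 fold change of treatment over DMSO control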;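 on 0.01 uM KAM: median log10 fold change of treatment over DMSO control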;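 on 0.1 uM KAM: median log10 fold change of treatment over DMSO control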;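 on 1 uM KAM: median log10 fold change of treatment over DMSO control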;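 on 10 uM KAM: median log10 fold change of treatment over DMSO control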
Assay type in all cases: binding
MAPK1 = target: T1, MAPK1 (Homo sapiens, UniProt P28482)
T1 construct: endogenous in cells; host or cells: K562
Method: (§1) Supplement 12953_2017_125_MOESM1_ESM.zip/MS_Supp Info.xlsx, sheet "KAM" | column: 10 uM KAM; 1 uM KAM; 0.1 uM KAM; 0.01 uM KAM; 0.001 uM KAM; RB50

CAMKK1 = target: T2, CAMKK1 (Homo sapiens, UniProt Q8N5S9)
T2 construct: endogenous in cells; host or cells: K562
Method: as §1

BCR = target: T3, BCR (Homo sapiens, UniProt P00519+P11274)
T3 construct: ABL1 (fusion partner in BCR-ABL); endogenous in cells; host or cells: K562 lysate
Method: as §1

BLVRA = target: T4, BLVRA (Homo sapiens, UniProt P53004);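 on 0.001 uM KAM: median log10 fold change of treatment over DMSO control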;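 on 0.01 uM KAM: median log10 fold change of treatment over DMSO control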;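 on 0.1 uM KAM: median log10 fold change of treatment over DMSO control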;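 on 1 uM KAM: median log10 fold change of treatment over DMSO control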;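 on 10 uM KAM: median log10 fold change of treatment over DMSO control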
T4 construct: endogenous in cells; host or cells: K562
T4 sequence (P53004 3-296): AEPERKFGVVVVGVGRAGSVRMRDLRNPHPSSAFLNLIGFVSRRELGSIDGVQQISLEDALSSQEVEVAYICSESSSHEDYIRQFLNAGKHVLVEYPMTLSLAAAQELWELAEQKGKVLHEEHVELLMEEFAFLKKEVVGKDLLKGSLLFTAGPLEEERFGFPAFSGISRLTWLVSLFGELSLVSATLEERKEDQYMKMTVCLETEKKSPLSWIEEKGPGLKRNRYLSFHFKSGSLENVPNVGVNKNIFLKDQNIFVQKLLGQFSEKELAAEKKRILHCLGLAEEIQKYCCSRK
Method: as §1

DDR1 = target: T5, DDR1 (Homo sapiens, UniProt Q08345)
T5 construct: endogenous in cells; host or cells: K562
Method: as §1

GAK = target: T6, GAK (Homo sapiens, UniProt O14976)
T6 construct: endogenous in cells; host or cells: K562 cell lysate
T6 sequence (O14976 1-1311): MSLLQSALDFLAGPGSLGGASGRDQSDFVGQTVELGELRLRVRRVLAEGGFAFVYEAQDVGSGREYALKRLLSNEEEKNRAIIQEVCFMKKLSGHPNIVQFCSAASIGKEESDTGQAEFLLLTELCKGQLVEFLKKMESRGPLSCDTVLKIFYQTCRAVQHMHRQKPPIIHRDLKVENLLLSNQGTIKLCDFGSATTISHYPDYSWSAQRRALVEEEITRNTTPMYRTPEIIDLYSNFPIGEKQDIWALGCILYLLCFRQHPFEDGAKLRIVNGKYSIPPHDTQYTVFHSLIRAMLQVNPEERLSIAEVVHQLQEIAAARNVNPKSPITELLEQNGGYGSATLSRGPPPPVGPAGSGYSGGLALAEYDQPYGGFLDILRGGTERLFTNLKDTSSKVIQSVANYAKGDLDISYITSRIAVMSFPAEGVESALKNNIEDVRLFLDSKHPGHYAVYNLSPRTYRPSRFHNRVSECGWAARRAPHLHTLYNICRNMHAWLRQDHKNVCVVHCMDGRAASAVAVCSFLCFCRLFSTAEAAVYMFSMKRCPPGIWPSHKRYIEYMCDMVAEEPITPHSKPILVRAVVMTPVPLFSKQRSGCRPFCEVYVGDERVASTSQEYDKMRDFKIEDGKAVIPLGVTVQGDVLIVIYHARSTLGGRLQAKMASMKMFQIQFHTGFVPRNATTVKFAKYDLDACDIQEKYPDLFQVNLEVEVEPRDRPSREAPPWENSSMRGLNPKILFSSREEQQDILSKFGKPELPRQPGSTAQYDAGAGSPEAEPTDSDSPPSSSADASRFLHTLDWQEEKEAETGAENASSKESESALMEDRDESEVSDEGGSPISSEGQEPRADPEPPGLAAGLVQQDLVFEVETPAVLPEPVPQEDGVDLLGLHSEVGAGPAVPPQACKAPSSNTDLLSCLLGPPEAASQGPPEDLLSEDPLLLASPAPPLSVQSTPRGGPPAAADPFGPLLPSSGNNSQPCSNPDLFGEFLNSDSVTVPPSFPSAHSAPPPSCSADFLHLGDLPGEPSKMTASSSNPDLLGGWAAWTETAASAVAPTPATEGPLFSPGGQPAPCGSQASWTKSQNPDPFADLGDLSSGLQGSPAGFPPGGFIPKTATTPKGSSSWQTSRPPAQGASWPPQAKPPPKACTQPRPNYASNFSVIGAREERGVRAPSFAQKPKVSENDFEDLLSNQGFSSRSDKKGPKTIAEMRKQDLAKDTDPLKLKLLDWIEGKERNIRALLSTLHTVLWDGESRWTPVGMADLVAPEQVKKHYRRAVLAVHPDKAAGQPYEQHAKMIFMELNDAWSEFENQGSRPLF
Method: as §1

LYN = target: T7, LYN (Homo sapiens, UniProt P07948)
T7 construct: endogenous in cells; host or cells: K562
Method: as §1

MARK3 = target: T8, MARK3 (Homo sapiens, UniProt P27448)
T8 construct: endogenous in cells; host or cells: K562
Method: as §1

CDK13 = target: T9, CDK13 (Homo sapiens, UniProt Q14004)
T9 construct: endogenous in cells; host or cells: K562
Method: as §1

[1] = read-out: RB50 (the source's name)

T5 sequence (Q08345 19-913): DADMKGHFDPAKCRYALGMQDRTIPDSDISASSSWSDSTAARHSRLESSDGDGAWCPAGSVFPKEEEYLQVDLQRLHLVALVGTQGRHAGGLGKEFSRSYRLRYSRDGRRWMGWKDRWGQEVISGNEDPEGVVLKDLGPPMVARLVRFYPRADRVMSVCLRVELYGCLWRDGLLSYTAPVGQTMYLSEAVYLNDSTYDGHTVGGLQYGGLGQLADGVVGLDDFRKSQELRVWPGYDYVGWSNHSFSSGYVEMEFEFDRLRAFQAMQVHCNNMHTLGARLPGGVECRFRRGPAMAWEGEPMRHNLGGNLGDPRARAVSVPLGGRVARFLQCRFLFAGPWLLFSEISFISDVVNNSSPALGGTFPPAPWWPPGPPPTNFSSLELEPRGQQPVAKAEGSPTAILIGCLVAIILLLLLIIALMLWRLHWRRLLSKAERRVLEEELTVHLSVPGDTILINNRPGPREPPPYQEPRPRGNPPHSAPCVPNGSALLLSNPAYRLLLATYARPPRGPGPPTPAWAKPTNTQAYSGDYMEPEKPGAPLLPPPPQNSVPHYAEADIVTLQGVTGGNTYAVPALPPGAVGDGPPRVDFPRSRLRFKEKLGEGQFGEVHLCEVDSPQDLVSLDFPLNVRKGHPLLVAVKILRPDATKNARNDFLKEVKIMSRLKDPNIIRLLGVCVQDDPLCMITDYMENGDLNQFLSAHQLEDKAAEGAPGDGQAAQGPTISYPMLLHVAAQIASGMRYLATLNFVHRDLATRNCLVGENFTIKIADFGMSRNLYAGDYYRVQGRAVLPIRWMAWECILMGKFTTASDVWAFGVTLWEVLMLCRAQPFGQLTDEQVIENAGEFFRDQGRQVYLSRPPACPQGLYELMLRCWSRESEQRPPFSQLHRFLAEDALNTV
T8 sequence (P27448 whole entry): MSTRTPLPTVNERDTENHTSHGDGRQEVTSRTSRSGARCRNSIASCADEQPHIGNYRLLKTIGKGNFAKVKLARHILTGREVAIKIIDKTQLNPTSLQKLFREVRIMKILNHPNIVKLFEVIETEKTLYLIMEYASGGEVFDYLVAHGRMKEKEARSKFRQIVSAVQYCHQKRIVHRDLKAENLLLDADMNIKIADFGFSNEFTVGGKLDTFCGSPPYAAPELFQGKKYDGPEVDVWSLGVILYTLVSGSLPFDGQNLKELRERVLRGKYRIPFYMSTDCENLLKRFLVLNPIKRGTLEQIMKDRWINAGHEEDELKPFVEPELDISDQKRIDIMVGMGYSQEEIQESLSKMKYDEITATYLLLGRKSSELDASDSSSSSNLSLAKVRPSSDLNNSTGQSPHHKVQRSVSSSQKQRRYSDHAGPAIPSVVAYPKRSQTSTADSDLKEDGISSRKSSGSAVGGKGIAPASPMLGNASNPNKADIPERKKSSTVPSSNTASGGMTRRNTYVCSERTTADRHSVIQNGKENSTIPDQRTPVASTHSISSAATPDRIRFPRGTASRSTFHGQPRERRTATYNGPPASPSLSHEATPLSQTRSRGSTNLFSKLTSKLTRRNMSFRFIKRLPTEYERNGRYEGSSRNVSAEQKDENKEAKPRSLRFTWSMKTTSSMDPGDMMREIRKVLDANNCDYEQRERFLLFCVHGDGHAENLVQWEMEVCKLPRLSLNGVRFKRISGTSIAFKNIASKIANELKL
T9 sequence (Q14004 whole entry): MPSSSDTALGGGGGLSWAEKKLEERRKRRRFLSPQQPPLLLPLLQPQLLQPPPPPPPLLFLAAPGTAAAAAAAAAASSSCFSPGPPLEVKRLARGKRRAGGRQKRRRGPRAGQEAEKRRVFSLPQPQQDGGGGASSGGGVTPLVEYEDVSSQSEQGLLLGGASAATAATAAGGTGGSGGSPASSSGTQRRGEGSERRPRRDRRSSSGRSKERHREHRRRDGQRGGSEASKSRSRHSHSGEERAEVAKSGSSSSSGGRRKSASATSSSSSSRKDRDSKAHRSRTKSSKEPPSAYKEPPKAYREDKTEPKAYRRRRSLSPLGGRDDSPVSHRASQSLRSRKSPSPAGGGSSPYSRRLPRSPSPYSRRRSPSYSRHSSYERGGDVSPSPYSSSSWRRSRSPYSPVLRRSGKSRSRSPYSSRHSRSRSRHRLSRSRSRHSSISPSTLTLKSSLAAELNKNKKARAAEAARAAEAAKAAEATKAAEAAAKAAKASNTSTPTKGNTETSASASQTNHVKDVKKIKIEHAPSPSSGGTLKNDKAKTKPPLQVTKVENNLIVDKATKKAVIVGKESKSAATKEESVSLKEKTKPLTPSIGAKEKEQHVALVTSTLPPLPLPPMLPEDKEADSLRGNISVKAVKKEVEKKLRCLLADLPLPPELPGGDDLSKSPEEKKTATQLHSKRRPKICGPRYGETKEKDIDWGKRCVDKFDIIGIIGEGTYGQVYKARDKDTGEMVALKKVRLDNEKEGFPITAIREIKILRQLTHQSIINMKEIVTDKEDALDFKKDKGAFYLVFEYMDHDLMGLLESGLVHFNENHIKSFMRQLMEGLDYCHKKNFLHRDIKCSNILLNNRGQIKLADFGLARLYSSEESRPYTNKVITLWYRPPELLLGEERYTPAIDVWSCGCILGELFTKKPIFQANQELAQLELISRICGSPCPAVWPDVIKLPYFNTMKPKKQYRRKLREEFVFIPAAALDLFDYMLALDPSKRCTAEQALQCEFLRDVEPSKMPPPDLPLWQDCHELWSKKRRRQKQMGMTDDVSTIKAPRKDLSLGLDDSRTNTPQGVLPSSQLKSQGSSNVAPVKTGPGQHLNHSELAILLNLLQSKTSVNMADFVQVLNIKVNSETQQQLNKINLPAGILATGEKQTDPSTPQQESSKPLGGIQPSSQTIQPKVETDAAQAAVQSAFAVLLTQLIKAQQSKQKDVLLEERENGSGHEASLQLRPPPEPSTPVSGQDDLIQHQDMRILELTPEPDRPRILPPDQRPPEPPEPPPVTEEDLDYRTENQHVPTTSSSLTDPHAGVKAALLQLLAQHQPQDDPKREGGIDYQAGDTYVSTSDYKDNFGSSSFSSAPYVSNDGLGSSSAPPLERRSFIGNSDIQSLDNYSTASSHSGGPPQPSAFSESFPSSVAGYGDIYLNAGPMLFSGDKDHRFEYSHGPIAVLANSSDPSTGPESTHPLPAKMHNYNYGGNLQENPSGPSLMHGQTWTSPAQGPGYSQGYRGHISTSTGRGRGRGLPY
T7 sequence (P07948 whole entry): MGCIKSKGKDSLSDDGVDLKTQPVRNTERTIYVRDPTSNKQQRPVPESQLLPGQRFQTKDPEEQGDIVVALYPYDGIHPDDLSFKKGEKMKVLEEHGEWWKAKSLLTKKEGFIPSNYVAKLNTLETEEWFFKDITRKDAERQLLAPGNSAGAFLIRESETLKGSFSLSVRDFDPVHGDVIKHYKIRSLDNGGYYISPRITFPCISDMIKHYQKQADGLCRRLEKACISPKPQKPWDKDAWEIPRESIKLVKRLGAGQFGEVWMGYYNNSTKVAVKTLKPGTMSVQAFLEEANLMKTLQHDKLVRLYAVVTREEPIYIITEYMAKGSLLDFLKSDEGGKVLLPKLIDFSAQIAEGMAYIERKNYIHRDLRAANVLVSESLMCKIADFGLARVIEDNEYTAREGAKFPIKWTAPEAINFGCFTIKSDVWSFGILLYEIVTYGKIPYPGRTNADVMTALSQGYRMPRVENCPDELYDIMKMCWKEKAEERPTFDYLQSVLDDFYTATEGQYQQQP
T2 sequence (Q8N5S9 whole entry): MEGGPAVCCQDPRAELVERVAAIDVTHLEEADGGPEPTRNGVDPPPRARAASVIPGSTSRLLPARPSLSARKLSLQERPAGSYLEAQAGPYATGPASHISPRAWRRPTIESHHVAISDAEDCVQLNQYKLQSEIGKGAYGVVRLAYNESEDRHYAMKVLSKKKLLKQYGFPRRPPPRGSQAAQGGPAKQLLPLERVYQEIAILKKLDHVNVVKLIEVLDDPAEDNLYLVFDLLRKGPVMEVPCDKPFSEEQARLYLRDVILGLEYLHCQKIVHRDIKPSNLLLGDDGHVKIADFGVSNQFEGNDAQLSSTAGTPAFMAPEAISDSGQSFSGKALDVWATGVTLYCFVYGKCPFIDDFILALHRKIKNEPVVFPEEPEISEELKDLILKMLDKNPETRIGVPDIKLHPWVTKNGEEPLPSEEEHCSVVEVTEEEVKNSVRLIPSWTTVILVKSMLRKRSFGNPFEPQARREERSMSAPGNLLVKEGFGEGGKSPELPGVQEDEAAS
T1 sequence (P28482 whole entry): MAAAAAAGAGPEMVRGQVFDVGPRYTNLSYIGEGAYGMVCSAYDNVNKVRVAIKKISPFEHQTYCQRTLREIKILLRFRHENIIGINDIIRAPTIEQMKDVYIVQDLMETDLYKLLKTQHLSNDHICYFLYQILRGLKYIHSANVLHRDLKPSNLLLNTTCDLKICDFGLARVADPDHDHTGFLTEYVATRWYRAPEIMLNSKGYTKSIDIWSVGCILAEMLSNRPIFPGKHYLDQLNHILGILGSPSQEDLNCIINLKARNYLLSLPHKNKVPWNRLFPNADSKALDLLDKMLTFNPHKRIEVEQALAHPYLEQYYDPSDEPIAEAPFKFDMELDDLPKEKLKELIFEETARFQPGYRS

SMILES: N#CCc1ccc(Nc2nc(NCCCN)cc(Nc3cc(C4CC4)[nH]n3)n2)cc1 [KAM]
- median Log10 fold change (MAPK1; 0.001 uM KAM): -0.0422
- median Log10 fold change (MAPK1; 0.01 uM KAM): -0.03333
- median Log10 fold change (MAPK1; 0.1 uM KAM): -0.1132
- median Log10 fold change (MAPK1; 1 uM KAM): -0.2315
- median Log10 fold change (MAPK1; 10 uM KAM): -0.3482
- IC50 (MAPK1; [1]): 3180 nM
- median Log10 fold change (CAMKK1; 0.001 uM KAM): -0.02592
- median Log10 fold change (CAMKK1; 0.01 uM KAM): -0.02355
- median Log10 fold change (CAMKK1; 0.1 uM KAM): -0.2718
- median Log10 fold change (CAMKK1; 1 uM KAM): -0.415
- median Log10 fold change (CAMKK1; 10 uM KAM): -0.4583
- IC50 (CAMKK1; [1]): 248 nM
- median Log10 fold change (BCR; 0.001 uM KAM): -0.02555
- median Log10 fold change (BCR; 0.01 uM KAM): -0.005343
- median Log10 fold change (BCR; 0.1 uM KAM): -0.1851
- median Log10 fold change (BCR; 1 uM KAM): -0.427
- median Log10 fold change (BCR; 10 uM KAM): -0.5622
- IC50 (BLVRA; KAM 0.001-10 uM, read-out: RB50 (the source's name)): > 10000 nM
- 0.001 uM KAM (BLVRA; relative to 0 uM KAM = 0): 0.01315
- 0.01 uM KAM (BLVRA; relative to 0 uM KAM = 0): 0.09211
- 0.1 uM KAM (BLVRA; relative to 0 uM KAM = 0): 0.1192
- 1 uM KAM (BLVRA; relative to 0 uM KAM = 0): 0.1811
- 10 uM KAM (BLVRA; relative to 0 uM KAM = 0): 0.1365
- median Log10 fold change (DDR1; 0.001 uM KAM): -0.02436
- median Log10 fold change (DDR1; 0.01 uM KAM): -0.004539
- median Log10 fold change (DDR1; 0.1 uM KAM): -0.13
- median Log10 fold change (DDR1; 1 uM KAM): -0.3025
- median Log10 fold change (DDR1; 10 uM KAM): -0.3889
- IC50 (DDR1; [1]): 1330 nM
- median Log10 fold change (GAK; 0.001 uM KAM): -0.03137
- median Log10 fold change (GAK; 0.01 uM KAM): -0.03807
- median Log10 fold change (GAK; 0.1 uM KAM): -0.2019
- median Log10 fold change (GAK; 1 uM KAM): -0.4109
- median Log10 fold change (GAK; 10 uM KAM): -0.5049
- IC50 (GAK; [1]): 424 nM
- median Log10 fold change (LYN; 0.001 uM KAM): -0.01474
- median Log10 fold change (LYN; 0.01 uM KAM): -0.009336
- median Log10 fold change (LYN; 0.1 uM KAM): -0.1214
- median Log10 fold change (LYN; 1 uM KAM): -0.4299
- median Log10 fold change (LYN; 10 uM KAM): -0.513
- IC50 (LYN; [1]): 601 nM
- median Log10 fold change (MARK3; 0.001 uM KAM): -0.0002127
- median Log10 fold change (MARK3; 0.01 uM KAM): -0.02099
- median Log10 fold change (MARK3; 0.1 uM KAM): -0.2742
- median Log10 fold change (MARK3; 1 uM KAM): -0.5652
- median Log10 fold change (MARK3; 10 uM KAM): -0.6472
- IC50 (MARK3; [1]): 160 nM
- median Log10 fold change (CDK13; 0.001 uM KAM): -0.01353
- median Log10 fold change (CDK13; 0.01 uM KAM): -0.006338
- median Log10 fold change (CDK13; 0.1 uM KAM): -0.0866
- median Log10 fold change (CDK13; 1 uM KAM): -0.2891
- median Log10 fold change (CDK13; 10 uM KAM): -0.4319
- IC50 (CDK13; [1]): 1480 nM
